“Also recorded” adds a separate entry of the source. Read-outs that look alike come from different tables or passages of the source.
How the values were obtained:
GAA knockout (KO) mice = experiment: β2 agonist with ERT (rhGAA) in GAA-KO mice with Pompe disease; details: for glycogen content in skeletal muscle: β2 agonist added to ERT, versus ERT alone; for CI-MPR (M6PR) expression: muscle
[1] = test system: patients with late-onset Pompe disease; details: adjunctive to ERT; cited from earlier work
[2] = test system: G6pc siRNA knockdown AML-12 cells; details: for Lipid Reduction Scoring, High dose / Lipid Reduction Scoring, Medium dose / Lipid Reduction Scoring, Low dose: Oil Red O, duplicate; for Lipid Reduction Scoring, Medium dose: medium concentration of Table 6; for Lipid Reduction Scoring, Low dose: low concentration of Table 6
Text: In brief, a wide array of drugs was selected, including those that modulate autophagy via the […] pathway, those that do so through AMPK modulation to act through mTORC1, and those using yet-undetermined pathways. Analysis of additional literature led to the selection of three concentrations of each compound to be tested in cell culture using the G6pc siRNA knockdown AML-12 mouse hepatocyte cell line model of GSD Ia as an initial screen for the drugs.
Drug concentrations were chosen based on similarity to published concentrations in either cell culture models resulting in target effects or autophagy, or in vivo extracellular fluid concentrations following animal treatments. The latter case is noted with the fluid type. Concentrations used in our in vitro AML-12 cell culture treatments are listed as the low, medium, and high concentrations that were screened.
The first test using AML-12 cells was the Oil Red 0 stain to examine the presence of lipid vacuoles in cells given the treatments.
G6pc siRNA knockdown AML-12 cells were given three different doses of each drug treatment. After 72 hours of growth, the media was changed to ketogenic media and appropriate quantities of each drug were added. This was performed in duplicate. Oil Red 0 staining was then performed and bright field images acquired at 10× magnification.
Drug treatments at three doses each were performed on G6pc siRNA knockdown AML-12 cells. Following oil red 0 staining the whole plates were evaluated visually for reductions in lipid accumulation. Treatments were performed in duplicate. —/0/+/++/+++ indicates the degree of improvement, or lipid reduction, caused by the treatment, with + indicating positive benefits.

G6pc−/− knockout mice = experiment: Bezafibrate treatment of G6pc−/− mice; assay type: in vivo
Method: G6pc−/− knockout mice were administered intraperitoneal injections of bezafibrate 25 mg/kg/day suspended in 10% DMSO/90% PBS IP for 3 days.

[3] = test system: murine model for hepatosteatosis; assay type: in vivo, mouse
HepG2 cells = experiment: LC3-II in HepG2 cells after clenbuterol; assay type: cell-based
Text: (§1) Asterisk indicates p<0.05.
(§2) Thus, clenbuterol, a long-acting β-agonist with proven safety for long-term treatment of mice, represents a leading candidate among drugs to be considered for the manipulation of autophagy in GSD Ia (Table 2).

[4] = test system: mouse primary hepatocytes; experiment: LC3-II in mouse primary hepatocytes after clenbuterol; assay type: cell-based; details: 24 hours
Text: as §1, §2

autophagy = details: Table 4; drugs known to enhance autophagy; cited from earlier work
[5] = test system: G6pc knockdown AML-12 cells; experiment: LC3 Western blot of drug-treated G6pc knockdown AML-12 cells; assay type: cell-based, mouse; details: 24 hours; conditions with optimal effects in the Oil Red O screen
Method: FIG. 27 illustrates LC3 Western blot of drug-treated G6pc knockdown AML-12 cells. Western blotting was performed on AML-12 cells incubated for 24 hours with the described drug conditions. LC3 was quantified and normalized against each condition's β-actin protein quantification.
In addition to Oil Red O staining, cells were analyzed via Western blots for restored LC3 expression for each drug, under the conditions that had optimal effects in the Oil Red O screen (FIG. 27). Since the Western antibody previously used successfully for rapamycin treatment LC3 blots had been discontinued by the manufacturer, we tested two alternative antibodies and chose the one from Cell Signaling Technologies because it gave the strongest signal-to-noise ratio under our experimental conditions.
Western blotting was performed on AML-12 cells incubated for 24 hours with the described drug conditions. LC3 was quantified and normalized against each condition's β-actin protein quantification.

Row | Compound | Lipid Reduction Scoring, High dose ([2]; high concentration of Table 6) | Lipid Reduction Scoring, Medium dose [2] | Lipid Reduction Scoring, Low dose [2] | Effect (autophagy) | further results
1 | CC(C)(C)NCC(O)c1ccc(O)c(CO)c1 (centres unmarked) [Albuterol, albuterol] |  |  |  |  | glycogen content in skeletal muscle (GAA knockout (KO) mice): lower glycogen content; 6 minute walk test performance [1]: improve the 6 minute walk test performance
2 | CC(C)(Oc1ccc(CCNC(=O)c2ccc(Cl)cc2)cc1)C(=O)O [Bezafibrate, bezafibrate] | ++ | + |  |  | kidney weight as a percentage of total body weight (G6pc−/− knockout mice; bezafibrate 25 mg/kg/day IP, p<0.046): very small but quantitatively significant increase; blood glucose level (G6pc−/− knockout mice; bezafibrate-treated affected mice, below threshold of detection): < 20 mg/dL
3 | CC(C)(C)NCC(O)c1cc(Cl)c(N)c(Cl)c1 (centres unmarked) [Clenbuterol, clenbuterol] |  |  |  |  | autophagy ([3]; murine model for hepatosteatosis): induce autophagy; hepatosteatosis ([3]; preclinical experiments): reduced hepatosteatosis; lowest concentration at which LC3-II is increased (HepG2 cells; 24 hours): 300 nM; LC3-II (HepG2 cells; 24 hours after addition): increases LC3-II; muscle hypertrophy (GAA knockout (KO) mice; GAA-KO mice): induce muscle hypertrophy; CI-MPR (M6PR) expression (GAA knockout (KO) mice; GAA-KO mice): enhance CI-MPR expression; CI-MPR (M6PR) expression (GAA knockout (KO) mice; GAA-KO mice, listed as clenbuterol): increase the expression of CI-MPR; also recorded: increased CI-MPR expression; also recorded: enhancing M6PR expression; uptake of rhGAA (GAA knockout (KO) mice; preclinical experiments): increased the uptake of rhGAA; glycogen content in skeletal muscle (GAA knockout (KO) mice): lower glycogen content; also recorded: decreased glycogen storage; LC3-II [4]: increases LC3-II
4 | CN(C)C(=N)N=C(N)N [Metformin] | 0 |  | + | Activated autophagy, activated AMPK in vitro | 
5 | CN(C)c1ccc2nc3ccc(=[N+](C)C)cc-3sc2c1 [Methylene Blue, Methylene blue] | − − − | − − | + | Activated autophagy, inhibited hepatosteatosis | 
6 | CC#C[C@]1(O)CC[C@H]2[C@@H]3CCC4=CC(=O)CCC4=C3[C@@H](c3ccc(N(C)C)cc3)C[C@@]21C [Mifepristone] | ++ | + (Spotty ++) | + | Activated autophagy, inhibited FXR | cell survival, High dose [2]: Great survival; LC3 normalized against β-actin (Western blot) [5]: increase in LC3 autophagic marker
7 | Oc1ccc(C=Cc2cc(O)cc(O)c2)cc1 [Resveratrol] | − − − | 0 (Spotty ++) | + | Enhanced FAO , reduced | 
8 | OC[C@H]1O[C@H](O[C@H]2O[C@H](CO)[C@@H](O)[C@H](O)[C@H]2O)[C@H](O)[C@@H](O)[C@@H]1O [Trehalose] |  | − − | + | Stimulated autophagy | cell survival, High dose [2]: High death
9 | COc1ccc(CCN(C)CCCC(C#N)(c2ccc(OC)c(OC)c2)C(C)C)cc1OC (centres unmarked) [Verapamil] | − − | + |  | Induced autophagy, reduced cytosolic calcium | cell survival, High dose ([2]; high concentration of Table 6): Very high death
10 | O=C(O)CCCCC1CCSS1 (stereo not drawn) [α-Lipoic acid, α-lipoic acid] | 0 |  | + | Activated autophagy, reduced intercellular | 
11 | Cc1c(C)c2c(c(C)c1O)CC[C@@](C)(CCC[C@H](C)CCC[C@H](C)CCCC(C)C)O2 [α-Tocopherol] |  | − (Spotty ++) | 0 (Spotty +) |  | 
12 | Thyroid hormone |  |  |  | Increased autophagy, reduced steatosis | 
